Results from patent US11377441B2, “Covalent inhibitors of KRAS” (Araxes Pharma LLC, priority 2017, dated 2022).

Target: T1, KRAS G12C 1-169, his-tagged protein, GDP-loaded (Homo sapiens, UniProt P01116, G12C)
T1 construct: KRAS G12C 1-169, his-tagged protein, GDP-loaded
Assay: Biochemical assay: covalent modification of KRAS G12C measured by mass spectrometry (RapidFire/TOF or Q-Exactive)
Type: binding
Details: covalent binding to (modification of) KRAS G12C after a ten minute incubation period
Procedure, shortened: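 GDP-loaded KRAS G12C 1-169 (his-tagged) at 2 μM or 0.5 μM in 20 mM Hepes, 150 mM NaCl, 1 mM MgCl2, incubated with compound at 100, 30 or 10 μM at room temperature for 10 min, 30 min, 2 h or 24 h, then quenched with formic acid. Intact-protein LC-MS, deconvolved; percent modification from modified versus unmodified protein.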

SMILES	Binding %
C=CC(=O)N1C[C@H](C)N(c2nc(N3CC(N(C)C)C3)nc3c(F)c(-c4c(C)ccc5cnn(C)c45)c(Cl)cc23)C[C@@H]1C (atropisomer, axis not shown) [Compound 248, 1-((2S,5S)-4-((S)-6-chloro-7-(1,6-dimethyl-1H-indazol-7-yl)-2-(3-(dimethylamino)azetidin-1-yl)-8-fluoroquinazolin-4-yl)-2,5-dimethylpiperazin-1-yl)prop-2-en-1-one]	+ (+ indicates binding activity greater than 0% and up to 50%)
C=CC(=O)N1C[C@H](C)N(c2nc(OC[C@@H]3CCN(C)C3)nc3c(F)c(-c4c(C)ccc5[nH]nc(C)c45)c(Cl)cc23)C[C@H]1C [Compound 175, 1-((2R,5S)-4-(6-chloro-7-(3,5-dimethyl-1H-indazol-4-yl)-8-fluoro-2-(((R)-1-methylpyrrolidin-3-yl)methoxy)quinazolin-4-yl)-2,5-dimethylpiperazin-1-yl)prop-2-en-1-one]	++ (++ indicates binding activity from 50 to 80%)
C=CC(=O)N1C[C@H](C)N(c2nc(OCCN3CC(F)(F)C3)nc3c(F)c(-c4c(C)ccc5[nH]nc(C6CC6)c45)c(Cl)cc23)C[C@H]1C (atropisomer, axis not shown) [Compound 121, 1-((2R,5S)-4-((S)-6-chloro-7-(3-cyclopropyl-5-methyl-1H-indazol-4-yl)-2-(2-(3,3-difluoroazetidin-1-yl)ethoxy)-8-fluoroquinazolin-4-yl)-2,5-dimethylpiperazin-1-yl)prop-2-en-1-one]	+ (+ indicates binding activity greater than 0% and up to 50%)
C=CC(=O)N1CCN(c2nc(N3CC(N(C)C)C3)nc3c(F)c(-c4c(C)ccc5[nH]nc(N)c45)c(Cl)cc23)CC1 (atropisomer, axis not shown) [Compound 37, (R)-1-(4-(7-(3-amino-5-methyl-1H-indazol-4-yl)-6-chloro-2-(3-(dimethylamino)azetidin-1-yl)-8-fluoroquinazolin-4-yl)piperazin-1-yl)prop-2-en-1-one]	+++ (+++ indicates binding activity greater than 80%)
C=CC(=O)N1C[C@H](C)N(c2nc(OC3CCN(C(C)C)CC3)nc3c(F)c(-c4c(C)ccc5cnn(C)c45)c(Cl)cc23)C[C@H]1C (atropisomer, axis not shown) [Compound 167, 1-((2R,5S)-4-((R)-6-chloro-7-(1,6-dimethyl-1H-indazol-7-yl)-8-fluoro-2-(1-isopropylpiperidin-4-yloxy)quinazolin-4-yl)-2,5-dimethylpiperazin-1-yl)prop-2-en-1-one]	+++ (+++ indicates binding activity greater than 80%)
C=CC(=O)N1C[C@H](C)N(c2nc(N3CC(N(C)C)C3)nc3c(F)c(-c4c(C)ccc5cnn(C)c45)c(C(F)(F)F)cc23)C[C@H]1C [Compound 171, 1-((2R,5S)-4-(7-(1,6-dimethyl-1H-indazol-7-yl)-2-(3-(dimethylamino)azetidin-1-yl)-8-fluoro-6-(trifluoromethyl)quina-zolin-4-yl)-2,5-dimethylpiperazin-1-yl)prop-2-en-1-one]	+++ (+++ indicates binding activity greater than 80%)
C=CC(=O)N1C[C@H](C)N(c2nc(OCCN3CCOCC3)nc3c(F)c(-c4c(C)ccc5[nH]nc(N)c45)c(Cl)cc23)C[C@H]1C (atropisomer, axis not shown) [Compound 59, 1-((2R,5S)-4-((R)-7-(3-amino-5-methyl-1H-indazol-4-yl)-6-chloro-8-fluoro-2-(2-morpholinoethoxy)quina-zolin-4-yl)-2,5-dimethylpiperazin-1-yl)prop-2-en-1-one]	+++ (+++ indicates binding activity greater than 80%)
C=CC(=O)N1C[C@H](C)N(c2nc(OCCN3CCN(C)CC3)nc3c(F)c(-c4c(C)ccc5cnn(C)c45)c(Cl)cc23)C[C@H]1C (atropisomer, axis not shown) [Compound 169, 1-((2R,5S)-4-((R)-6-chloro-7-(1,6-dimethyl-1H-indazol-7-yl)-8-fluoro-2-(2-(4-methylpiperazin-1-yl)ethoxy)quinazolin-4-yl)-2,5-dimethylpiperazin-1-yl)prop-2-en-1-one]	+++ (+++ indicates binding activity greater than 80%)
C=CC(=O)N1C[C@H](C)N(c2nc(OC[C@H]3CC(F)(F)CN3C)nc3c(F)c(-c4c(C)ccc5cnn(C)c45)c(Cl)cc23)C[C@H]1C [Compound 241, 1-((2R,5S)-4-(6-chloro-2-(((R)-4,4-difluoro-1-methylpyrrolidin-2-yl)methoxy)-7-(1,6-dimethyl-1H-indazol-7-yl)-8-fluoroquinazolin-4-yl)-2,5-dimethylpiperazin-1-yl)prop-2-en-1-one]	+ (+ indicates binding activity greater than 0% and up to 50%)
C=CC(=O)N1C[C@H](C)N(c2nc(OC[C@@H]3CCN(C)C3)nc3c(F)c(-c4c(C)ccc5[nH]nc(C6CC6)c45)c(Cl)cc23)C[C@H]1C [Compound 177, 1-((2R,5S)-4-(6-chloro-7-(3-cyclopropyl-5-methyl-1H-indazol-4-yl)-8-fluoro-2-(((R)-1-methylpyrrolidin-3-yl)methoxy)quinazolin-4-yl)-2,5-dimethylpiperazin-1-yl)prop-2-en-1-one]	+++ (+++ indicates binding activity greater than 80%)
C=CC(=O)N1C[C@H](C)N(c2nc(N3CC(N(C)C)C3)nc3c(F)c(-c4c(C)ccc5c(N)noc45)c(Cl)cc23)C[C@H]1C [Compound 71, 1-((2R,5S)-4-(7-(3-amino-6-methylbenzo[d]isoxazol-7-yl)-6-chloro-2-(3-(dimethylamino)azetidin-1-yl)-8-fluoroquinazolin-4-yl)-2,5-dimethylpiperazin-1-yl)prop-2-en-1-one]	+ (+ indicates binding activity greater than 0% and up to 50%)
C=CC(=O)N1C[C@H](C)N(c2nc(OC[C@@H]3CCCN3C)nc3c(F)c(-c4c(C)ccc5cnn(C)c45)c(Cl)cc23)C[C@H]1C (atropisomer, axis not shown) [Compound 234, 1-((2R,5S)-4-((S)-6-chloro-7-(1,6-dimethyl-1H-indazol-7-yl)-8-fluoro-2-(((S)-1-methylpyrrolidin-2-yl)methoxy)quinazolin-4-yl)-2,5-dimethylpiperazin-1-yl)prop-2-en-1-one]	++ (++ indicates binding activity from 50 to 80%)
C=CC(=O)N1C[C@H](C)N(c2nc(OC[C@H]3CCCN3C)nc3c(F)c(-c4c(C)ccc5[nH]nc(C6CC6)c45)c(Cl)cc23)C[C@H]1C [Compound 172, 1-((2R,5S)-4-(6-chloro-7-(3-cyclopropyl-5-methyl-1H-indazol-4-yl)-8-fluoro-2-(((R)-1-methylpyrroldiin-2-yl)methoxy)quinazolin-4-yl)-2,5-dimethylpiperazin-1-yl)prop-2-en-1-one]	+++ (+++ indicates binding activity greater than 80%)
C=CC(=O)N1C[C@H](C)N(c2nc(OC[C@H]3CN(C)CCO3)nc3c(F)c(-c4c(C)ccc5[nH]nc(C6CC6)c45)c(Cl)cc23)C[C@H]1C [Compound 189, 1-((2R,5S)-4-(6-chloro-7-(3-cyclopropyl-5-methyl-1H-indazol-4-yl)-8-fluoro-2-(((R)-4-methylmorpholiln-2-yl)methoxy)quinazolin-4-yl)-2,5-dimethylpiperazin-1-yl)prop-2-en-1-one]	+++ (+++ indicates binding activity greater than 80%)
C=CC(=O)N1C[C@H](C)N(c2nc(N3CC(N(C)C)C3)nc3c(F)c(-c4c(C)ccc5[nH]nc(N(C)C)c45)c(Cl)cc23)C[C@H]1C [Compound 42, 1-((2R,5S)-4-(6-chloro-7-(3-(dimethylamino)-5-methyl-1H-indazol-4-yl)-2-(3-(dimethylamino)azetidin-1-yl)-8-fluoroquinazolin-4-yl)-2,5-dimethylpiperazin-1-yl)prop-2-en-1-one]	+ (+ indicates binding activity greater than 0% and up to 50%)
C=CC(=O)N1C[C@H](C)N(c2nc(N3CC(N(C)C)C3)nc3c(F)c(-c4cccc5occc45)c(Cl)cc23)C[C@H]1C [Compound 130, 1-((2R,5S)-4-(7-(benzofuran-4-yl)-6-chloro-2-(3-(dimethylamino)azetidin-1-yl)-8-fluoroquinazolin-4-yl)-2,5-dimethylpiperazin-1-yl)prop-2-en-1-one]	++ (++ indicates binding activity from 50 to 80%)
C=CC(=O)N1C[C@H](C)N(c2nc(N3CC(N(C)C)C3)nc3c(F)c(-c4c(C)ccc5onc(N)c45)c(Cl)cc23)C[C@H]1C [Compound 95, 1-((2R,5S)-4-((R)-7-(3-amino-5-methylbenzo[d]isoxazol-4-yl)-6-chloro-2-(3-(dimethylamino)azetidin-1-yl)-8-fluoroquinazolin-4-yl)-2,5-dimethylpiperazin-1-yl)prop-2-en-1-one]	+++ (+++ indicates binding activity greater than 80%)
C=CC(=O)N1[C@H](C)CN(c2nc(N3CC(N(C)C)C3)nc3c(F)c(-c4c(C)ccc5cnn(C)c45)c(Cl)cc23)C[C@@H]1C (atropisomer, axis not shown) [Compound 141, 1-((2S,6R)-4-((S)-6-chloro-7-(1,6-dimethyl-1H-indazol-7-yl)-2-(3-(dimethylamino)azetidin-1-yl)-8-fluoroquinazolin-4-yl)-2,6-dimethylpiperazin-1-yl)propan-2-en-1-one]	+ (+ indicates binding activity greater than 0% and up to 50%)
C=CC(=O)N1C[C@H](C)N(c2nc(N3CC(NC)C3)nc3c(F)c(-c4c(C)ccc5cnn(C6CC6)c45)c(Cl)cc23)C[C@H]1C [Compound 148, 1-((2R,5S)-4-(6-chloro-7-(1-cyclopropyl-6-methyl-1H-indazol-7-yl)-8-fluoro-2-(3-(methylamino)azetidin-1-yl)quinazolin-4-yl)-2,5-dimethylpiperazin-1-yl)prop-2-en-1-one]	+++ (+++ indicates binding activity greater than 80%)
